Data reported in publication PMC11089506 (Journal of Medicinal Chemistry, 2024).
Counter-ions that a name gives are not always drawn. Like-named read-outs stand apart in the source and are kept apart here.

Legend:
[1] = target: T1, human 5-HT2BR (Homo sapiens, UniProt P41595); experiment: Calcium No Wash PLUS assay, 5-HT2BR-HEK293 cells (Eurofins); type: cell-based; details: fluorescence-based Ca2+ imaging assay
T1 construct: host or cells: HEK293 (membrane homogenates)

[2] = target: T1, human 5-HT2BR; experiment: [125I]DOI competition binding assay
Method: (§1) Following incubation, the samples were filtered rapidly under vacuum through glass fiber filters (GF/B, Packard) presoaked with 0.3% polyethylenimine and rinsed several times with ice cold wash buffer (50 mM Tris-HCl, pH 7.4) using a 96-sample cell harvester (Unifilter, Packard). The filters were dried and then counted for radioactivity in a scintillation counter (Topcounter, Packard) using a scintillation cocktail (Microscint-0, Packard).

[3] = target: human 5-HT2CR (Homo sapiens, UniProt P28335); experiment: [125I]DOI competition binding assay
Chain of human 5-HT2CR (P28335 33-458): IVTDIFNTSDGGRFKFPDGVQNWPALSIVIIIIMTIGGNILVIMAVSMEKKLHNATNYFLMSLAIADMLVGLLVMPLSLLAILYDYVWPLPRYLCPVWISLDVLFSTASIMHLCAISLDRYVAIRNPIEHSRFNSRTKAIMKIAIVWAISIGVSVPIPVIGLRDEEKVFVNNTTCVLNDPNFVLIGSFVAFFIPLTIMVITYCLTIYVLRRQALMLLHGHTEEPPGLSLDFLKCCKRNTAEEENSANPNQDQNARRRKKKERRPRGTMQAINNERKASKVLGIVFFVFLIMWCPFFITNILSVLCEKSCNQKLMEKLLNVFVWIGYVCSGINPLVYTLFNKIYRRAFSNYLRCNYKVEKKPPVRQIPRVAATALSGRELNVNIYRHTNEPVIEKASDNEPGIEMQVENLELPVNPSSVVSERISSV
Method: as §1

[4] = tested on: MDR1 (P-gp); experiment: MDR1-MDCK II permeability assay; type: in vitro ADME; details: dog, MDCK-MDR1, pH 7.4
[5] = tested on: MDR1; experiment: MDR1-MDCK II permeability assay; type: in vitro ADME; details: dog, MDCK-MDR1, pH 7.4, Table S6
[6] = target: T2, 5-HT1A (Homo sapiens, UniProt P08908); experiment: radioligand competition binding, [3H]8-OH-DPAT
T2 construct: Eurofins
T2 sequence (P08908 1-422): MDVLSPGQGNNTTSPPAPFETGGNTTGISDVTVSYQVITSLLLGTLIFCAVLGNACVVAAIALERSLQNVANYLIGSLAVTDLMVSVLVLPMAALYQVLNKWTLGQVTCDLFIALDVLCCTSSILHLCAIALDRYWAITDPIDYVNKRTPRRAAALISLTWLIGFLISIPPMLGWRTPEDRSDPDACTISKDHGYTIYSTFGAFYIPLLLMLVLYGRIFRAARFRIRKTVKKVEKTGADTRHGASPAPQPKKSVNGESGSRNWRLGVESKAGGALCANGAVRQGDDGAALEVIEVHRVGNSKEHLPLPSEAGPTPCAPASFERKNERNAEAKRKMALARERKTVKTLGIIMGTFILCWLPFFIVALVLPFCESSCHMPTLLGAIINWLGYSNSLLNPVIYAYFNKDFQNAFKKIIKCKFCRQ

[7] = target: T3, H1 (histaminergic receptor) (Homo sapiens, UniProt P35367); experiment: radioligand competition binding, [3H]pyrilamine
T3 construct: Eurofins
T3 sequence (P35367 whole entry): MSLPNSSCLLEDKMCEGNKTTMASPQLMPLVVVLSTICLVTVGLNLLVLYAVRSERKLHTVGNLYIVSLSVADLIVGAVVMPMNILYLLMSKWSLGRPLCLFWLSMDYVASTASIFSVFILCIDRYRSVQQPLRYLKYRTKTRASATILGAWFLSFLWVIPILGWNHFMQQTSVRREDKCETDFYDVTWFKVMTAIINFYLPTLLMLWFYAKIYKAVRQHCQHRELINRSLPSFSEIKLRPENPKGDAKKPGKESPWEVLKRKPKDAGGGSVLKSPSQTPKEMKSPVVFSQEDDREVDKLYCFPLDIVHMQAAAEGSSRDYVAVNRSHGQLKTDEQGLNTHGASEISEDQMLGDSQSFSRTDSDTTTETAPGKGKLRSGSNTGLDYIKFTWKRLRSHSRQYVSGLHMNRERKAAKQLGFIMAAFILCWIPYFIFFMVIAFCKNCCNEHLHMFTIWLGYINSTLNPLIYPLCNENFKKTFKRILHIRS

[8] = target: T4, M4 (muscarinic receptor) (Homo sapiens, UniProt P08173); experiment: radioligand competition binding, [3H]4-DAMP
T4 construct: Eurofins
T4 sequence (P08173 1-479): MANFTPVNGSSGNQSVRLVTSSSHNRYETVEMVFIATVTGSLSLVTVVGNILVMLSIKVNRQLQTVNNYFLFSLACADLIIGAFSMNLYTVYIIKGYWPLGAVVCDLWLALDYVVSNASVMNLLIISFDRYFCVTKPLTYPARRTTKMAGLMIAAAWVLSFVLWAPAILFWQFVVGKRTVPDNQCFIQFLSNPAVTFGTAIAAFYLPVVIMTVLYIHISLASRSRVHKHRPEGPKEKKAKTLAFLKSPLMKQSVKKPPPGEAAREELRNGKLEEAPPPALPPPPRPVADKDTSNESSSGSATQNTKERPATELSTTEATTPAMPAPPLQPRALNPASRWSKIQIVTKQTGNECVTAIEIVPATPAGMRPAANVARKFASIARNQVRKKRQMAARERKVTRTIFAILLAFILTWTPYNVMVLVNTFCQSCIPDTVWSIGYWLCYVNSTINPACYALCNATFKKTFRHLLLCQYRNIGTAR

[9] = target: T5, M5 (muscarinic receptor) (Homo sapiens, UniProt P08912); experiment: radioligand competition binding, [3H]4-DAMP
T5 construct: Eurofins
T5 sequence (P08912 1-532): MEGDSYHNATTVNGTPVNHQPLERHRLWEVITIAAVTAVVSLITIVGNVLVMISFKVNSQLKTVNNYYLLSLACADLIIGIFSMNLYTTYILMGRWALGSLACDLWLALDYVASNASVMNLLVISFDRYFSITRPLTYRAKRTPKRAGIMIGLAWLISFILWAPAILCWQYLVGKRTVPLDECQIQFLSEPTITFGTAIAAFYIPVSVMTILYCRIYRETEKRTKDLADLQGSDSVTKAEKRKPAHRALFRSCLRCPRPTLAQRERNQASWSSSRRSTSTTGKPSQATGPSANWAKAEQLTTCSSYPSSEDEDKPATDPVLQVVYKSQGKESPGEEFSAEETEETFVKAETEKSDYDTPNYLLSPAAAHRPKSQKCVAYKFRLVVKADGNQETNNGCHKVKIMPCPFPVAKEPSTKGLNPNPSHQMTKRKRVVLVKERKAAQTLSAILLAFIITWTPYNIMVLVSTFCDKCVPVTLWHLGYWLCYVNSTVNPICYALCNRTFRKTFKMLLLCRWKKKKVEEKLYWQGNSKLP

[10] = target: T6, Nicotinic acetylcholine receptor α3β4 (Homo sapiens, UniProt P30926+P32297); experiment: radioligand competition binding, [125I]Epibatidine
T6 construct: Eurofins
T6 sequence (P32297 32-505): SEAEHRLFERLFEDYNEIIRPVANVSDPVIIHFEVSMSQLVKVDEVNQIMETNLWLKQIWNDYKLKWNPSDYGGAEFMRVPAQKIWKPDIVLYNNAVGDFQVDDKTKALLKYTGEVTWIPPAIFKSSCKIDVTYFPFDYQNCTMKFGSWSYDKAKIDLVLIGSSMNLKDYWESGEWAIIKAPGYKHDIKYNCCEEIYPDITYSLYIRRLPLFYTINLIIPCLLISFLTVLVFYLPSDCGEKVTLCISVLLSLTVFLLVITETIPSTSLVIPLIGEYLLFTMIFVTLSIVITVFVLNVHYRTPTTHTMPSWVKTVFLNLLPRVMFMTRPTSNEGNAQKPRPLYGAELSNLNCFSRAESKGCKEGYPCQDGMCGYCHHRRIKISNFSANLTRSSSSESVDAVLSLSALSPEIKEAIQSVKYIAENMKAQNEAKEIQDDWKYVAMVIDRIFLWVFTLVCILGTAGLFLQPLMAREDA
T6 sequence (P30926 22-498): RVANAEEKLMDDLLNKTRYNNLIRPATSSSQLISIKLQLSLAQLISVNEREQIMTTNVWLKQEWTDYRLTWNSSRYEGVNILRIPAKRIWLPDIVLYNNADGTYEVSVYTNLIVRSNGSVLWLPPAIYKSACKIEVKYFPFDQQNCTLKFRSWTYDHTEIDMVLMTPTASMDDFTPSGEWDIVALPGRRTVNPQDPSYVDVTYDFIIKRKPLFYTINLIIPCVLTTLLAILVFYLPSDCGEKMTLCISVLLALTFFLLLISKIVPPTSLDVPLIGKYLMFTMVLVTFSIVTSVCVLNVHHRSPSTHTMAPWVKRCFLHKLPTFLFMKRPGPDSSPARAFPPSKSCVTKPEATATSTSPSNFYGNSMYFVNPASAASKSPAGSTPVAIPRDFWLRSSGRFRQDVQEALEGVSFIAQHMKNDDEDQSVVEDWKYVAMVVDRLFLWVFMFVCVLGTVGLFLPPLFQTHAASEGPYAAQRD

[11] = target: T7, Opioid receptor μ (Homo sapiens, UniProt P35372); experiment: radioligand competition binding, [3H]Diprenorphine (second line)
T7 construct: Eurofins
T7 sequence (P35372 whole entry): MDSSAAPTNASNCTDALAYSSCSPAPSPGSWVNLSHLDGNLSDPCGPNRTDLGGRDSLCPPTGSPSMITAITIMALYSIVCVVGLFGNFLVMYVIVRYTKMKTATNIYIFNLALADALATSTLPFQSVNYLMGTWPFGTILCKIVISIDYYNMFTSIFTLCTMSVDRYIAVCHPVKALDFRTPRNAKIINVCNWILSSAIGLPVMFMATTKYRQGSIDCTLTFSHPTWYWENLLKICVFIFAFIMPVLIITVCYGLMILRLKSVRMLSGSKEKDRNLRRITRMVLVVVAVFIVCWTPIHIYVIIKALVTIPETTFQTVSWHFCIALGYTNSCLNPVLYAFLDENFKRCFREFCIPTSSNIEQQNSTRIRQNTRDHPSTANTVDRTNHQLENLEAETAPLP

[12] = tested on: Phorbol ester; experiment: radioligand competition binding, [3H]PDBu; parameters: species or system mouse
[13] = target: T8, Platelet Activating Factor Receptor (Homo sapiens, UniProt P25105); experiment: radioligand competition binding, [3H]PAF
T8 construct: Eurofins
T8 sequence (P25105 whole entry): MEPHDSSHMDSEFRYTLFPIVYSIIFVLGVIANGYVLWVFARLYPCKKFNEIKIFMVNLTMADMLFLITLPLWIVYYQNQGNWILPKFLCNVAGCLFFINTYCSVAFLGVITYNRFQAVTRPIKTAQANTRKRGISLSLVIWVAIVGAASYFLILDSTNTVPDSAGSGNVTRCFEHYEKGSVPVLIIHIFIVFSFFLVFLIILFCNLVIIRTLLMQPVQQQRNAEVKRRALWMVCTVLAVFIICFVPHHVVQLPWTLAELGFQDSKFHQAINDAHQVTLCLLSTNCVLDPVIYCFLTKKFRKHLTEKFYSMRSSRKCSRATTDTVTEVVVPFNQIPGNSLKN

[14] = target: T9, Sigma receptor σ1 (Homo sapiens, UniProt Q99720); experiment: radioligand competition binding, [3H]Pentazocine
T9 construct: Eurofins (contract laboratory)
T9 sequence (Q99720 whole entry): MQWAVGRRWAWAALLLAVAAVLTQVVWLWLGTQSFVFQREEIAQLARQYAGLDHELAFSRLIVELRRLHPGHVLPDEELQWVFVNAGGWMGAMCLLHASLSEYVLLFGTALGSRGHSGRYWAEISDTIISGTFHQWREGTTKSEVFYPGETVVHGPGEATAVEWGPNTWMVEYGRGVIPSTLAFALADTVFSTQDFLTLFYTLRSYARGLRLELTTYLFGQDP

[15] = tested on: various other targets (Table S4); experiment: broad screen, radioligand binding competition assays (Eurofins), summary; details: high nanomolar or micromolar ranges
[16] = target: Androgen receptor (NHR) (Homo sapiens, UniProt P10275); details: estimated from the % inhibition data
Chain of Androgen receptor (NHR) (P10275 whole entry): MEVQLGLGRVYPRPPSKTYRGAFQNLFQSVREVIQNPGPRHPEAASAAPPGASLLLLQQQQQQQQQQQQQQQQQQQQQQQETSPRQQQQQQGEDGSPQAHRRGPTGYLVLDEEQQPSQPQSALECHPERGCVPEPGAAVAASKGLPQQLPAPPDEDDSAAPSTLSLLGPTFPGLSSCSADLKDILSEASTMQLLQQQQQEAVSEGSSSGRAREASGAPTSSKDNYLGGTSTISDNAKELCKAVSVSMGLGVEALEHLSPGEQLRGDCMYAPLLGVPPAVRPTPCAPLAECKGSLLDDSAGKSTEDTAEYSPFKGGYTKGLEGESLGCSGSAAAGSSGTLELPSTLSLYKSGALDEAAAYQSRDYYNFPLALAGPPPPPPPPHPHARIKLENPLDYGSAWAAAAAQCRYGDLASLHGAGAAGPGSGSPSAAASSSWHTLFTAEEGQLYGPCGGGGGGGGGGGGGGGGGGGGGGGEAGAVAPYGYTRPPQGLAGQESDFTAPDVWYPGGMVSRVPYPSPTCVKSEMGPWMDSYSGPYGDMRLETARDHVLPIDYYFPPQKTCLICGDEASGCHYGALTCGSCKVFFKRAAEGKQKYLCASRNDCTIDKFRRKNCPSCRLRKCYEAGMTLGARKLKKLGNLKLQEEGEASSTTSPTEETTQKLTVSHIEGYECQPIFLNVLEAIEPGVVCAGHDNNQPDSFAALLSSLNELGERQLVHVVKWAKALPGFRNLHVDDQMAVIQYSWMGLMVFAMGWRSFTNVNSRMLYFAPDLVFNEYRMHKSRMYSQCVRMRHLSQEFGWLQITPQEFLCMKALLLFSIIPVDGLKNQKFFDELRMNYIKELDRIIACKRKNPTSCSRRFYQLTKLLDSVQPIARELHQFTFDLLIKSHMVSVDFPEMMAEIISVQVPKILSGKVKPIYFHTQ

[17] = estimated from the % inhibition data
[18] = read-out: % inhibition of the specific radioligand binding

T1 sequence (P41595 whole entry): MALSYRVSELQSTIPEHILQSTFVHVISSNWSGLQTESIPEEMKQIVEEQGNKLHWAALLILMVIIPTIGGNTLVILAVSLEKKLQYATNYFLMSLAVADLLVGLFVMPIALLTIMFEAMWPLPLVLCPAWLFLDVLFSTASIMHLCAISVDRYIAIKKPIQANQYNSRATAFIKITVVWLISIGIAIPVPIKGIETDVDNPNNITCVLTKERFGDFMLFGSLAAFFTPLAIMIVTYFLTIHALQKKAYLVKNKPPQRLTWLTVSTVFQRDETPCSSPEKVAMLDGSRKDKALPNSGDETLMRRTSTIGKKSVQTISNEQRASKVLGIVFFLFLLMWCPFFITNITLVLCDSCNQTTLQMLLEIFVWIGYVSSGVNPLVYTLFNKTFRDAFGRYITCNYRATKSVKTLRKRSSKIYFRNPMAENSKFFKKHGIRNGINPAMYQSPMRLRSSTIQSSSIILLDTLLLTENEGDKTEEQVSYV

Compound: COc1cc(C(F)(F)F)c(OC)cc1[C@@H]1CCCNC1 [(S)-11, 3-(2,5-Dimethoxy-4-(trifluoromethyl)phenyl)piperidine Hydrochloride]
- EC50 [1]: 0.19 µM
- 5-HT2BR pKi ± S.E.M. ([2]; Table S3): 7.88 ± 0.07
- Ki ([2]; read-out: Ki at 5-HT2BR): 0.013 µM
- 5-HT2CR pKi ± S.E.M. ([3]; Table S3): 7.89 ± 0.10
- Ki ([3]; read-out: Ki at 5-HT2CR): 0.013 µM
- Papp A→B at […] [4]: 18.4 ×10⁻⁶ cm/s
- Papp B→A at […] [4]: 17.3 ×10⁻⁶ cm/s
- Papp A→B at […], 2 µM ([4]; Figure 6): 18.6 ×10⁻⁶ cm/s
- Papp B→A at […], 2 µM ([4]; Figure 6): 17.3 ×10⁻⁶ cm/s
- recovery at […] ([5]; read-out: Mean Recovery A to B): 70%
- recovery at […] ([5]; read-out: Mean Recovery B to A): 92%
- IC50 [6, 17]: 0.1 to 1 µM
- inhibition at 0.1 µM [6, 18]: 20%
- inhibition at 1 µM [6, 18]: 64%
- inhibition at 10 µM [6, 18]: 90%
- IC50 [7, 17]: 1 to 10 µM
- inhibition at 1 µM [7, 18]: 19%
- inhibition at 10 µM [7, 18]: 64%
- IC50 [8, 17]: 1 to 10 µM
- inhibition at 0.1 µM [8, 18]: 9%
- inhibition at 1 µM [8, 18]: 38%
- inhibition at 10 µM [8, 18]: 80%
- IC50 [9, 17]: ~1 µM
- inhibition at 0.1 µM [9, 18]: 9%
- inhibition at 1 µM [9, 18]: 57%
- inhibition at 10 µM [9, 18]: 92%
- IC50 [10]: ~10 µM
- inhibition at 10 µM [10, 18]: 51%
- IC50 [11, 17]: > 10 µM
- inhibition at 10 µM [11, 18]: 18%
- % inhibition of the specific radioligand binding ([12]; (S)-11 10 μM, n=1): 15%
- IC50 [12, 17]: > 10 µM
- IC50 [13, 17]: > 10 µM
- inhibition at 10 µM [13, 18]: -11%
- IC50 [14, 17]: 1 to 10 µM
- inhibition at 10 µM [14, 18]: 84%
- binding affinities at the respective targets of the broad screen [15]: > 100 nM
- IC50 [16]: > 10 µM
